Reference: ChEMBL document CHEMBL1152560, “Substituted 2-arylbenzothiazoles as kinase inhibitors: hit-to-lead optimization” (Bioorg Med Chem, 2009)

What was measured:
[1] = biological target: T1, NUAK family SNF1-like kinase 1 (Homo sapiens) (UniProt O60285); assay: Residual activity of ARK5 at 1 uM by microplate scintillation counting
T1 sequence (whole entry): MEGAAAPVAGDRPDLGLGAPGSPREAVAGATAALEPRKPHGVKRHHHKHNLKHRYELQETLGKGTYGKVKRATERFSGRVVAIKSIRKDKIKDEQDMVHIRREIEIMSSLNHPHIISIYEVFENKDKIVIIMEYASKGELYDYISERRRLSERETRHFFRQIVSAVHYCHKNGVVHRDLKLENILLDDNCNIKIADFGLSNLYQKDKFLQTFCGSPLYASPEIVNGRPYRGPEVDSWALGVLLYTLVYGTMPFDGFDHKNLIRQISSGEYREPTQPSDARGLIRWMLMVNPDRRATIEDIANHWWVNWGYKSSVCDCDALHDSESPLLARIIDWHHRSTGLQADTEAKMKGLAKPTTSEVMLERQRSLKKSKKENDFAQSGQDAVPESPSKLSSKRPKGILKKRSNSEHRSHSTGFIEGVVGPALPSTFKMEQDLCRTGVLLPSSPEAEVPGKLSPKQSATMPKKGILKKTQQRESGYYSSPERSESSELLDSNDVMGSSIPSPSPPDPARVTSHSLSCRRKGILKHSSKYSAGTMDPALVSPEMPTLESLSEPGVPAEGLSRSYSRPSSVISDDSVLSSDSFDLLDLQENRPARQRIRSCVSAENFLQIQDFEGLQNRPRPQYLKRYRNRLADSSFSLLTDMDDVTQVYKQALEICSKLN

[2] = biological target: T2, Eukaryotic translation initiation factor 2-alpha kinase 3 (Homo sapiens) (UniProt Q9NZJ5); assay: Residual activity of EIF2AK3 at 10 uM by microplate scintillation counting
T2 sequence (whole entry): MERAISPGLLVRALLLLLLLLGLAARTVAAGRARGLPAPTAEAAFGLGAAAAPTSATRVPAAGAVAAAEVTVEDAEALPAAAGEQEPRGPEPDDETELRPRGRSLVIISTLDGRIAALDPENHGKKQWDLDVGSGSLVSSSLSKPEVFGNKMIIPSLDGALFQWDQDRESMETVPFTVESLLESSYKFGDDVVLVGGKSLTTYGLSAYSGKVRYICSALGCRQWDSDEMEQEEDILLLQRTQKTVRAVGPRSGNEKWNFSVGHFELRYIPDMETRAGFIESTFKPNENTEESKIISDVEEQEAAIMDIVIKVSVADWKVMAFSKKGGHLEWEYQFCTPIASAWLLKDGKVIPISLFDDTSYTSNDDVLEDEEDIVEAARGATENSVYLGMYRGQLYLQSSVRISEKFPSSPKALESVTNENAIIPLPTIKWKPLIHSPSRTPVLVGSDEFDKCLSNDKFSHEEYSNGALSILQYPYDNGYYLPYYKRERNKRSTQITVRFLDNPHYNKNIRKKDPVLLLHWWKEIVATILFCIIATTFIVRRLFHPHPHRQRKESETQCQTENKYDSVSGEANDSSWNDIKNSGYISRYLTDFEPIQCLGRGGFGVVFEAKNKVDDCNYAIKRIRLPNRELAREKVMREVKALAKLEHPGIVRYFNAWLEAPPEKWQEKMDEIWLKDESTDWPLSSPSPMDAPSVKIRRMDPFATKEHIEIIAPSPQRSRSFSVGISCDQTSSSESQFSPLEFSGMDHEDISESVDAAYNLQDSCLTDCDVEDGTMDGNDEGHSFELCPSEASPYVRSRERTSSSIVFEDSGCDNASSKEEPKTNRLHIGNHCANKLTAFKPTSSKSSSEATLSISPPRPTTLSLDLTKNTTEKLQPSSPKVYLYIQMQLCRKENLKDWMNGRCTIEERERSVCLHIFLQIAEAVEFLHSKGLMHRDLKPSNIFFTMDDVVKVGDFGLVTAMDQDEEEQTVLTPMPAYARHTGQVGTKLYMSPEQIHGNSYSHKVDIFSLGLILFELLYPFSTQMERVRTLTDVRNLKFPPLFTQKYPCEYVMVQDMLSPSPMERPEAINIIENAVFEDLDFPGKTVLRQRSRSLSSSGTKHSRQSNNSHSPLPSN

[3] = biological target: Dual specificity mitogen-activated protein kinase kinase 1 (Homo sapiens) (UniProt Q02750); assay: Residual activity of wild type MEK1 at 10 uM by microplate scintillation counting
Dual specificity mitogen-activated protein kinase kinase 1 (Homo sapiens), sequence (Q02750 whole entry): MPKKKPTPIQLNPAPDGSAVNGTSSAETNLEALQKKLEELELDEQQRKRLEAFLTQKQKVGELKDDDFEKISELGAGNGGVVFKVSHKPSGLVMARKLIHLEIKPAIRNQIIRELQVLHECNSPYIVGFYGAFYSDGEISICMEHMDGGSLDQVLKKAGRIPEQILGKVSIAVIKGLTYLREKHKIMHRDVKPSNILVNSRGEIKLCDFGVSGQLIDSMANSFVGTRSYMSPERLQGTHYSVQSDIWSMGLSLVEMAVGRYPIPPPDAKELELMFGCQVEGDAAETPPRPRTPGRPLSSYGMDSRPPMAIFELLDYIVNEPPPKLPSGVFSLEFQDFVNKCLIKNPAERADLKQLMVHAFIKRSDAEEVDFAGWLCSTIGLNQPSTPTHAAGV

[4] = biological target: T3, CDK4/Cyclin D3 (Homo sapiens) (UniProt P11802+P30281); assay: Residual activity of CDK4/Cyclin D3 at 10 uM by microplate scintillation counting; assay type: protein-complex assay
[5] = biological target: Serine/threonine-protein kinase 26 (Homo sapiens) (UniProt Q9P289); assay: Residual activity of MST4 at 1 uM by microplate scintillation counting
Serine/threonine-protein kinase 26 (Homo sapiens), sequence (Q9P289 2-416 limits assumed): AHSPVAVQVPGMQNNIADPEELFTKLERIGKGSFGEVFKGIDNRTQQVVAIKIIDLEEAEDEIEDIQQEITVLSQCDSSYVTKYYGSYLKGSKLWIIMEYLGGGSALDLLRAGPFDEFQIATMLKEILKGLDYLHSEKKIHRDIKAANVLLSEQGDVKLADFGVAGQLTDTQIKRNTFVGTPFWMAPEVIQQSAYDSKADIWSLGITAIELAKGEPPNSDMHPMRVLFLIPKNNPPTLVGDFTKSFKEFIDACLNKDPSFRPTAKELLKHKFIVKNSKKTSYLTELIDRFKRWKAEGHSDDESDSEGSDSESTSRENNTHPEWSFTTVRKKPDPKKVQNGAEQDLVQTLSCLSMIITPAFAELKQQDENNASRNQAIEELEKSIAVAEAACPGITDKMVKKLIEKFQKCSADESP

[6] = biological target: T4, Serine/threonine-protein kinase 3 (Homo sapiens) (UniProt Q13188); assay: Residual activity of MST2 at 1 uM by microplate scintillation counting
T4 sequence (whole entry): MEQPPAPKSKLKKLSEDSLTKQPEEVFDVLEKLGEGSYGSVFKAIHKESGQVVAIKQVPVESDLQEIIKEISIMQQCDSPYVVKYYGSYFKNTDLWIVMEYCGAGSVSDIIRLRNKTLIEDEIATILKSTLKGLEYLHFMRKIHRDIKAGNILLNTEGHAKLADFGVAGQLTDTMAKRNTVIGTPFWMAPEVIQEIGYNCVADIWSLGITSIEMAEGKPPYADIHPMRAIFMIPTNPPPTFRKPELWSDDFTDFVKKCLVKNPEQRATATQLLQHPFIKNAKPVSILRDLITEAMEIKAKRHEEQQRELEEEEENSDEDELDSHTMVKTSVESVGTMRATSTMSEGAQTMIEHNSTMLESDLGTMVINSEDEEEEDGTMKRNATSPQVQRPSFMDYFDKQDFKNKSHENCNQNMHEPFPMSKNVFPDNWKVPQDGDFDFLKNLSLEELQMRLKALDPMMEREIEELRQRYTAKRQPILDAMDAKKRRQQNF

[7] = biological target: Ephrin type-A receptor 4 (Homo sapiens) (UniProt P54764); assay: Residual activity of EPHA4 at 10 uM by microplate scintillation counting
Ephrin type-A receptor 4 (Homo sapiens), sequence (P54764 whole entry): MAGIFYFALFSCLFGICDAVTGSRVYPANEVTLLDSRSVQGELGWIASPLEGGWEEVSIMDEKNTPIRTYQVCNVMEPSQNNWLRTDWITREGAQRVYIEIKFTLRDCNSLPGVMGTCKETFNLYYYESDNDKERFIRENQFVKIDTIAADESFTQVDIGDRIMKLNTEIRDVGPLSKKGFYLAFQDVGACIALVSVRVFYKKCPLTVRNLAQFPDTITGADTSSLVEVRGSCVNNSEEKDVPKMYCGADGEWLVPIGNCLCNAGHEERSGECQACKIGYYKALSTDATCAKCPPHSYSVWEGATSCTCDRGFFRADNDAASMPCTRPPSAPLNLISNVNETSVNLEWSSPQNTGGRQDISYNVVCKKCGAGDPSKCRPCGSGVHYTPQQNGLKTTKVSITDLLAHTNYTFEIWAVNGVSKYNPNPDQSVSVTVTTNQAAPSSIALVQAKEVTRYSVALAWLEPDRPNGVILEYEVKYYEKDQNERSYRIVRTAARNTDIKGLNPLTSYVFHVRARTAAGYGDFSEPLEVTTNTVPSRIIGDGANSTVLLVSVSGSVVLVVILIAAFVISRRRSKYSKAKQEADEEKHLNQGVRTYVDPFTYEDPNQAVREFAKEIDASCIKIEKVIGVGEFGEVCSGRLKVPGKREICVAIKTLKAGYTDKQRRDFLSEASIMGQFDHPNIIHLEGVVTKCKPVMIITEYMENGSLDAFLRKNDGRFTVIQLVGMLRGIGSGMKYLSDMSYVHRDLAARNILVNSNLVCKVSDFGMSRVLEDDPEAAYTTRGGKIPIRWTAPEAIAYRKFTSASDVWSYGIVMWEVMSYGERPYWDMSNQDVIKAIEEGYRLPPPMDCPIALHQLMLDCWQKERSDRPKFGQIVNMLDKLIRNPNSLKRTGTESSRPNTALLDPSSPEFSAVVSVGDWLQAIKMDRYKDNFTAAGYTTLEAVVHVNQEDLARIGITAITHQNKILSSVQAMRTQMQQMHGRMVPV

[8] = biological target: Vascular endothelial growth factor receptor 3 (Homo sapiens, UniProt P35916); assay: Residual activity of VEGFR3 at 10 uM by microplate scintillation counting
Vascular endothelial growth factor receptor 3, sequence (P35916 whole entry): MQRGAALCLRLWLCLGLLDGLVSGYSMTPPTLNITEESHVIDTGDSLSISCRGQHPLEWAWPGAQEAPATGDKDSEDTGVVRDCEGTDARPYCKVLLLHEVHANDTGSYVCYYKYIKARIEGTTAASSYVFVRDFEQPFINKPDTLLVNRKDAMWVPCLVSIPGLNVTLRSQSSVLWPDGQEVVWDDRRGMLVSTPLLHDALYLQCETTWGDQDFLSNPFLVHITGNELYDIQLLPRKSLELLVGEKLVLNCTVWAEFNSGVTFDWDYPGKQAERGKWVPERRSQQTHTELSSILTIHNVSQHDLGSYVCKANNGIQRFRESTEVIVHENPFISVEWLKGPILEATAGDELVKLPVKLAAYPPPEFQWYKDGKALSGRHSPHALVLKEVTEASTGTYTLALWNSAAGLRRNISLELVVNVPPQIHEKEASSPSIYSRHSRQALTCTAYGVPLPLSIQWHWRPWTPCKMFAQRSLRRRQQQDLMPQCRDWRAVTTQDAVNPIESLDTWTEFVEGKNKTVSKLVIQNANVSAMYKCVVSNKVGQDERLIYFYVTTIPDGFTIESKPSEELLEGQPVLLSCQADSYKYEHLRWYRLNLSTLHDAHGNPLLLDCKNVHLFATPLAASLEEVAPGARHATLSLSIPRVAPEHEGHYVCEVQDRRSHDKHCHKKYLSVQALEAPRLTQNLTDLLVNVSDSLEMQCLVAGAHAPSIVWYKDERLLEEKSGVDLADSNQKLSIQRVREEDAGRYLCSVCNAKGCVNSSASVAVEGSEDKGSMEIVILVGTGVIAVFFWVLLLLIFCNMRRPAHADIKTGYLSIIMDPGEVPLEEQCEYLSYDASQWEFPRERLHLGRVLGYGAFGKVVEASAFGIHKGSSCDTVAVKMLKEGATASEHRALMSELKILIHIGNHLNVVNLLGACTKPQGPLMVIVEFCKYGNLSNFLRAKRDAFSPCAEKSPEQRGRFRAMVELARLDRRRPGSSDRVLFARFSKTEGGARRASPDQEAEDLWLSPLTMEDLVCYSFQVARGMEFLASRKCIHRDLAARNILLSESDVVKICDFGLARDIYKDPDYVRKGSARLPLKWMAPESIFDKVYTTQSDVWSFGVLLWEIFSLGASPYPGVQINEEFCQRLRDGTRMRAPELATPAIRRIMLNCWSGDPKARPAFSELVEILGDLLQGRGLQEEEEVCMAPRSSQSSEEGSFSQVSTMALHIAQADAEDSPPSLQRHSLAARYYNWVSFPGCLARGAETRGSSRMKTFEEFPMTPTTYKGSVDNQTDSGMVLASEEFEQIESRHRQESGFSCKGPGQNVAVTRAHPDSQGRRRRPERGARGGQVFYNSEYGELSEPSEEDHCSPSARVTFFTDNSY

[9] = biological target: Calcium/calmodulin-dependent protein kinase type 1D (Homo sapiens) (UniProt Q8IU85); assay: Residual activity of CAMK1D at 0.1 uM by microplate scintillation counting
Calcium/calmodulin-dependent protein kinase type 1D (Homo sapiens), sequence (Q8IU85 whole entry, looked up): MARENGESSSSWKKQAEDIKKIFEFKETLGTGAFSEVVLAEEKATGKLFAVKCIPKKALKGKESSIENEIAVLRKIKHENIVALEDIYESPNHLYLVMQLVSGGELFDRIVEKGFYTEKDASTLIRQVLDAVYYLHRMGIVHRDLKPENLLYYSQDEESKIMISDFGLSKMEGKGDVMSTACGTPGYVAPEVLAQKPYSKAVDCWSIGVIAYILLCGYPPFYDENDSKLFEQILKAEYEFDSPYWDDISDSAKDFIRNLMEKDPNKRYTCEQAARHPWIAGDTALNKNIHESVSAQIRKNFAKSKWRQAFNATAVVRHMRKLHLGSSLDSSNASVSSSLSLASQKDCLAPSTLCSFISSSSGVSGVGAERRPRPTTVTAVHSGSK

[10] = biological target: Protein kinase C eta type (Homo sapiens) (UniProt P24723); assay: Residual activity of PKCeta at 0.1 uM by microplate scintillation counting
Protein kinase C eta type (Homo sapiens), sequence (P24723 whole entry): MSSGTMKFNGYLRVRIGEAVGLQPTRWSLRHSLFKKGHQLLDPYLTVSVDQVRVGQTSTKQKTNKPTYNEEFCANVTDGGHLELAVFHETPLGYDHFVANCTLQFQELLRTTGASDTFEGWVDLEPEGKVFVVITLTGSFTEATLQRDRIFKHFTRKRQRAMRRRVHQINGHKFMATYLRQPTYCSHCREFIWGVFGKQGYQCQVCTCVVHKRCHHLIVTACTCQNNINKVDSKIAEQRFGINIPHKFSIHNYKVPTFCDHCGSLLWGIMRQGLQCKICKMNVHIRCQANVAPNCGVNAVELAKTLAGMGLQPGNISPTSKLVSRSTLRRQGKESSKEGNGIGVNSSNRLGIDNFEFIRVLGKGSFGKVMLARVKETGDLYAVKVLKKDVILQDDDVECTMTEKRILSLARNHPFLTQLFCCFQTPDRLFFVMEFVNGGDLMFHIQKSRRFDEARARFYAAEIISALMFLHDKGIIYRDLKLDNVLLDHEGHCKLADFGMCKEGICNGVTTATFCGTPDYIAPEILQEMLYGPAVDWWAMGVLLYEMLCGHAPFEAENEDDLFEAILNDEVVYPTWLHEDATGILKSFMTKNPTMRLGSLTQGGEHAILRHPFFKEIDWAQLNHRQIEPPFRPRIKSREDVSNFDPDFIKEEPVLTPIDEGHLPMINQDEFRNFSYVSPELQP

[11] = biological target: Proto-oncogene tyrosine-protein kinase Src (Homo sapiens) (UniProt P12931); assay: Residual activity of SRC at 1 uM by microplate scintillation counting
Proto-oncogene tyrosine-protein kinase Src (Homo sapiens), sequence (P12931 2-536 limits assumed): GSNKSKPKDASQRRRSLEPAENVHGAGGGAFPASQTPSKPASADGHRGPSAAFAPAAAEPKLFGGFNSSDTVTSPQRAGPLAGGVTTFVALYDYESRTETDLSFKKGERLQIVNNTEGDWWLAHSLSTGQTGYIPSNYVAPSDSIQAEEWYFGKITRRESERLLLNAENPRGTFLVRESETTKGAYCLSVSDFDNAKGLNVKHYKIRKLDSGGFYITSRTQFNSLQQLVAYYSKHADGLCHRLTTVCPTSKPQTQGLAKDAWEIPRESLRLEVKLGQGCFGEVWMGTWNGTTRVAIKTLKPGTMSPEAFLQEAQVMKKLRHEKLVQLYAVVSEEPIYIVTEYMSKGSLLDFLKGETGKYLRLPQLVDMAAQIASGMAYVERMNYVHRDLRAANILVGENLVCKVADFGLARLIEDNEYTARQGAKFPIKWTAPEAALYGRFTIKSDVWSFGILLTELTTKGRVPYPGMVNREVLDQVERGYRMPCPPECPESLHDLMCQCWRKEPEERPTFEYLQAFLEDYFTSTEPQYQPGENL

[12] = biological target: Cyclin-dependent kinase 2/cyclin E1 (Homo sapiens) (UniProt P24864+P24941); assay: Residual activity of CDK2/Cyclin E at 1 uM by microplate scintillation counting; assay type: protein-complex assay
[13] = biological target: T3, CDK4/Cyclin D3 (Homo sapiens); assay: Residual activity of CDK4/Cyclin D3 at 0.1 uM by microplate scintillation counting; assay type: protein-complex assay

Row | residual activity [1] | residual activity [2] | residual activity [3] | residual activity [4] | residual activity [5] | residual activity [6] | residual activity [7] | residual activity [8] | residual activity [9] | residual activity [10] | residual activity [11] | residual activity [12] | residual activity [13] | Compound
1 | 91% | 239% | 15% | 98% | 98% | 66% | 94% | 6% | 101% | 117% | 95% | 94% | 80% | COc1cc2c(Oc3ccc(-c4nc5ccccc5s4)cc3)ncnc2cc1OCCCN1CCCC1
2 | 88% | 256% | 26% | 105% | 109% | 67% | 112% | 4% | 88% | 97% | 87% | 102% | 98% | COc1cc2c(Oc3ccc(-c4nc5ccccc5s4)cc3)ncnc2cc1OCCCN1CCN(C)CC1
3 | 101% | 155% | 3% | 93% | 109% | 86% | 47% | 4% | 104% | 104% | 89% | 94% | 82% | COc1cc2c(Oc3ccc(-c4nc5ccccc5s4)cc3F)ncnc2cc1OCCCN1CCN(C)CC1
